From PMC11091967, “Silicon-Rhodamine Functionalized Evocalcet Probes Potently and Selectively Label Calcium Sensing Receptors In Vitro, In Vivo, and Ex Vivo” (ACS Pharmacology & Translational Science, 2024)

How the values were obtained:
[1] = Spectrofluorometric fluorescence in PBS and effect of pH; format: physicochemical; details: 750 nM in PBS, peak fluorescence at 670
Procedure: Spectrofluorometric measurements were carried out by using the Agilent Cary Eclipse instrument. The voltage of the photomultiplier tube (PMT) was set to 600 for EvoSiR4 and EvoSiR6, and for 500 for SiR (4). Fluorescence of the probes was measured at concentrations ranging from 30 to 3000 nM in PBS containing various amounts of bovine serum albumin (BSA) (Sigma, A7906). Quenching experiments for the calculation of BSA binding were performed by adding a 1:1 molar ratio of tannic acid dissolved in ddH2O (Sigma, 403040) to the solution prior to measuring fluorescence.

zebrafish larvae = experiment: Zebrafish startle reflex, tolerability and brain penetration with bath-applied probe; format: in vivo, zebrafish (Danio rerio)
Procedure: For the neuromast labeling experiments, wild-type 4–6 days post fertilization (dpf) zebrafish larvae were incubated in 200 μL of E3 medium containing different doses of the SiR probes (500–5000 nM), 2.5 μM 4-(4-diethylaminostyryl)-1-methyl-pyridinium-iodid (DiAsp, Sigma, D3418), which specifically labels hair cells in the lateral line in 0.5% DMSO for 30 min (35). Next, washing and anesthesia were achieved by placing the larvae in a 35 mm imaging dish (MolBiTec, Imaging dish 1.5) which contained 500 μL of E3 medium with 168 mg/L MS-222 (Tricaine Mehanesulfonate, Sigma) for 10 min. After removing the solution, fish were side-embedded in the imaging dish using 500 μL of 0.75% low-melting temperature agarose (Sigma, A4018). Wide-field imaging was done using the Zeiss Axio Observer fluorescence microscope (LD A-Plan 10× objective, NA = 0.25), and confocal imaging was done using a Zeiss LSM 800 confocal fluorescence microscope (LD LCI Plan-Apochromat 25× objective, NA = 0.8).
For the behavioral analysis, wild-type 4–6 dpf zebrafish larvae were placed individually into custom-built sound delivery system described in a previous publication.[36] For acoustic stimulation, we used a 90 dB stimulus and recorded the subsequent behavioral responses using a high-speed camera (xiQ USB3 vision) at a frame rate of 500 fps using custom scripts written in Python. The camera was placed 30 cm above the sound delivery system. The latency of the startle reflex was quantified manually by using an LED flash (780 nm wavelength) in parallel with the time of stimulus delivery. Escape responses were quantified manually, where we considered a short-latency startle response between 2 and 16 ms and a long-latency startle response above 16 ms.

CYP2D6 = test system: CYP2D6; parameters: method as in PMID 29724589; details: cited from earlier work

## Cc1cc(C(=O)NCCCCNC(=O)Cc2ccc(N3CC[C@H](N[C@H](C)c4cccc5ccccc45)C3)cc2)ccc1C1=C2C=CC(=[N+](C)C)C=C2[Si](C)(C)c2cc(N(C)C)ccc21 [EvoSiR4]
[1]
  decrease in fluorescence at pH above 10: 50%
Zebrafish larvae; bath-applied 5 and 10 μM, acoustic stimulation
  effect on startle responses (percentage elicited, ratio of short-latency escapes, latency): no significant difference
Zebrafish larvae; bath-applied, Tol056 strain, confocal microscopy
  entry into zebrafish CNS: does not enter the zebrafish CNS
Zebrafish larvae; bath-applied, larvae
  concentration beyond which lethal: > 20 µM
  concentration up to which no effect on basic locomotion capabilities: up to 10 μM

## C[C@@H](N[C@H]1CCN(c2ccc(CC(=O)O)cc2)C1)c1cccc2ccccc12 [evocalcet]
CYP2D6
  CYP2D6 inhibition: no direct CYP2D6 inhibition
